From ChEMBL document CHEMBL5375979, “Chemical, Biochemical, Cellular, and Physiological Characterization of Leucettinib-21, a Down Syndrome and Alzheimer's Disease Drug Candidate” (J Med Chem, 2023)

Tests used:
[1] = target: T1, Dual specificity protein kinase CLK1 (Homo sapiens, UniProt P49759); conditions: dose 10.0 µM
Target sequence in this assay (P49759 whole entry, looked up): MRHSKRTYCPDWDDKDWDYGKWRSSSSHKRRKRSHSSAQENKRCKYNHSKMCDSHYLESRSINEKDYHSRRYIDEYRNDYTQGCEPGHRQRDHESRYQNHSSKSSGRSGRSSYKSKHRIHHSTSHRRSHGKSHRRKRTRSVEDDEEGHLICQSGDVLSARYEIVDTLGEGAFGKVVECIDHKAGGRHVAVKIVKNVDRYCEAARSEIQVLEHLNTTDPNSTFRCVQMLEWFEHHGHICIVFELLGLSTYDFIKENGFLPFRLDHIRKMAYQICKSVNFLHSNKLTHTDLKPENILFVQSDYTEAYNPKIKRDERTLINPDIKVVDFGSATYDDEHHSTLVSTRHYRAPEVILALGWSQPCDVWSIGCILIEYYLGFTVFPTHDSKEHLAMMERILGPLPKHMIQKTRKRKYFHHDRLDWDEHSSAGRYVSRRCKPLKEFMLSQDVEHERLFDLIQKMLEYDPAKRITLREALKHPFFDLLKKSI

[2] = target: T2, Dual specificity protein kinase CLK4 (Homo sapiens, UniProt Q9HAZ1)
[3] = target: Dual specificity protein kinase CLK3 (Homo sapiens, UniProt P49761)
Description: Inhibition of human CLK3 assessed as remaining activity by eurofins-cerep kinase profiler analysis

[4] = target: Calcium/calmodulin-dependent protein kinase kinase 2 (Homo sapiens) (UniProt Q96RR4); conditions: dose 10.0 µM
Sequence of Calcium/calmodulin-dependent protein kinase kinase 2 (Homo sapiens) (Q96RR4 2-588 limits assumed): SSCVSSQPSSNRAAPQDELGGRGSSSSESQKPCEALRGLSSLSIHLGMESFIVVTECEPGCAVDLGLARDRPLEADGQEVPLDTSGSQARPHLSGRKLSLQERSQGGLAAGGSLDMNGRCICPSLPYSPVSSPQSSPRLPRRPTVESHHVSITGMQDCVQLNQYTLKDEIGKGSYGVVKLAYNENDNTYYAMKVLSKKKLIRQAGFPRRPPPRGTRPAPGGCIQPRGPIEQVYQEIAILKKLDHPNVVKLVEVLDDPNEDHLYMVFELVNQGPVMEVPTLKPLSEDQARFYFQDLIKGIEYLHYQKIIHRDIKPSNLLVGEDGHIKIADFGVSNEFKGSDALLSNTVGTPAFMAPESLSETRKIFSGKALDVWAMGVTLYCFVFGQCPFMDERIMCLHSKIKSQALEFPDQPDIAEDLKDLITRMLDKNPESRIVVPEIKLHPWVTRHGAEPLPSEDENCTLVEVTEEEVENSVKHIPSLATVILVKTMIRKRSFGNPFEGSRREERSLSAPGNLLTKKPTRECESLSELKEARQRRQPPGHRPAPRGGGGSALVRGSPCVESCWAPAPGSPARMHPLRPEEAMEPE

[5] = target: Cyclin-G-associated kinase (Homo sapiens) (UniProt O14976); conditions: dose 10.0 µM
[6] = target: Cyclin-dependent kinase-like 4 (Homo sapiens, UniProt Q5MAI5)
Description: Inhibition of human CDKL4 assessed as remaining activity by eurofins-cerep kinase profiler analysis

[7] = target: Serine/threonine-protein kinase PIM (Homo sapiens) (UniProt P11309+Q9P1W9+Q86V86); conditions: dose 10.0 µM
[8] = target: T1, Dual specificity protein kinase CLK1
Target sequence in this assay (P49759 whole entry): as the sequence (P49759 whole entry, looked up) above

[9] = target: BMP-2-inducible protein kinase (Homo sapiens) (UniProt Q9NSY1); conditions: dose 10.0 µM
Sequence of BMP-2-inducible protein kinase (Homo sapiens) (Q9NSY1 whole entry, looked up): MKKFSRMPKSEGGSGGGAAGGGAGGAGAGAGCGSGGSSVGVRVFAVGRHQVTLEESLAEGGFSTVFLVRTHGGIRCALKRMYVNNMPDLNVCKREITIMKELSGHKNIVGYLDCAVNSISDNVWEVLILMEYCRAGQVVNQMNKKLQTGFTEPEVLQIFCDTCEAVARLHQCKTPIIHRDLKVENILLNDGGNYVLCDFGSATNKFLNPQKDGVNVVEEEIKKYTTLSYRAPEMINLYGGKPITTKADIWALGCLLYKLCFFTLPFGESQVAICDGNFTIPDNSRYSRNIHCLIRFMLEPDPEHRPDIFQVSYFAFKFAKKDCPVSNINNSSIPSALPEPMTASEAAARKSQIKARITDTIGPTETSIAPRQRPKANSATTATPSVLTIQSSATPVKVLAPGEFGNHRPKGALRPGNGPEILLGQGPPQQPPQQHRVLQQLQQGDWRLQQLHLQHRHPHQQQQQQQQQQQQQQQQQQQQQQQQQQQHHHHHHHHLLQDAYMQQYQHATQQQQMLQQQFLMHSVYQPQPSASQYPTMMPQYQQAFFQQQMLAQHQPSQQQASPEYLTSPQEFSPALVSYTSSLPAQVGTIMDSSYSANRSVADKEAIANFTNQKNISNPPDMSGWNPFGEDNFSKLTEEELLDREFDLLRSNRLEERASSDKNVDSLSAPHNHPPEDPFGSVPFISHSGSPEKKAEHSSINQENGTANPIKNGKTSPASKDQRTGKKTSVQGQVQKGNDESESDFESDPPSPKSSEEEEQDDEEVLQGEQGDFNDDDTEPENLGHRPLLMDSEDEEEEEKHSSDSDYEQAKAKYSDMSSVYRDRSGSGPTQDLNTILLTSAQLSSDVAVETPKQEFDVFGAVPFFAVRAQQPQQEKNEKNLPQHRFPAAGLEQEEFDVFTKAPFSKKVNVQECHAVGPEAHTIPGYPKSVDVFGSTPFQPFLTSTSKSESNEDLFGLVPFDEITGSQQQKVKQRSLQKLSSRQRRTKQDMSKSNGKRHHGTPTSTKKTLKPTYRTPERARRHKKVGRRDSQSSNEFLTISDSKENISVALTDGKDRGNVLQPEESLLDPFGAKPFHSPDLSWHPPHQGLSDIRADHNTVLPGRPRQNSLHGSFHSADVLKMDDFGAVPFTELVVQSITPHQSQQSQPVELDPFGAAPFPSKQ

[10] = target: Homeodomain-interacting protein kinase 4 (Homo sapiens, UniProt Q8NE63)
Description: Inhibition of human HIPK4 assessed as remaining activity by eurofins-cerep kinase profiler analysis

[11] = target: Cyclin-dependent kinase-like 3 (Homo sapiens, UniProt Q8IVW4)
Description: Inhibition of human CDKL3 assessed as remaining activity by eurofins-cerep kinase profiler analysis

[12] = target: Dual specificity protein kinase CLK2 (Homo sapiens, UniProt P49760)
Sequence of Dual specificity protein kinase CLK2 (P49760 whole entry): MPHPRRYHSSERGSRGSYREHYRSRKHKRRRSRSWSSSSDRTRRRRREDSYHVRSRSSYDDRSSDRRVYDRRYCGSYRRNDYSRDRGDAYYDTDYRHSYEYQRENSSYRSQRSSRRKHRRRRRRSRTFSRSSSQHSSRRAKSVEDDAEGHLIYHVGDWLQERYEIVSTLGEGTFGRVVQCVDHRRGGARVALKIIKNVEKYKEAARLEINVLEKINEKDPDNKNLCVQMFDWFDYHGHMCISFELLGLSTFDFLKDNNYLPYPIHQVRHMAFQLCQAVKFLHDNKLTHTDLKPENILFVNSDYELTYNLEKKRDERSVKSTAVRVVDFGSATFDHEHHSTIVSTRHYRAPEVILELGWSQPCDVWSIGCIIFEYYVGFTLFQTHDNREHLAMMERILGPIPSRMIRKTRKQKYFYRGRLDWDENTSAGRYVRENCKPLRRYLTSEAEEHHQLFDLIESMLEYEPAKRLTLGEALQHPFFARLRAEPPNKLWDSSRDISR
Description: Inhibition of human CLK2 assessed as remaining activity by eurofins-cerep kinase profiler analysis

[13] = target: Cyclin-dependent kinase-like 1 (Homo sapiens, UniProt Q00532)
Description: Inhibition of human CDKL1 assessed as remaining activity by eurofins-cerep kinase profiler analysis

[14] = target: Homeodomain-interacting protein kinase 3 (Homo sapiens, UniProt Q9H422)
Description: Inhibition of human HIPK3 assessed as remaining activity by eurofins-cerep kinase profiler analysis

[15] = target: Homeodomain-interacting protein kinase 1 (Homo sapiens, UniProt Q86Z02)
Description: Inhibition of human HIPK1 assessed as remaining activity by eurofins-cerep kinase profiler analysis

[16] = target: Serine/threonine-protein kinase TAO3 (Homo sapiens, UniProt Q9H2K8)
Description: Inhibition of human TAO3 assessed as remaining activity by eurofins-cerep kinase profiler analysis

[17] = target: T3, Homeodomain-interacting protein kinase 2 (Homo sapiens, UniProt Q9H2X6); conditions: dose 10.0 µM
[18] = target: T3, Homeodomain-interacting protein kinase 2
Description: Inhibition of human HIPK2 assessed as remaining activity by eurofins-cerep kinase profiler analysis

[19] = target: Transcription initiation factor TFIID subunit 1-like (Homo sapiens, UniProt Q8IZX4)
Description: Inhibition of human TAF1L assessed as remaining activity by eurofins-cerep kinase profiler analysis

[20] = target: Dual specificity tyrosine-phosphorylation-regulated kinase 2 (Homo sapiens) (UniProt Q92630); conditions: dose 10.0 µM
[21] = target: Casein kinase II subunit alpha (Homo sapiens) (UniProt P68400); conditions: dose 10.0 µM
Sequence of Casein kinase II subunit alpha (Homo sapiens) (P68400 whole entry, looked up): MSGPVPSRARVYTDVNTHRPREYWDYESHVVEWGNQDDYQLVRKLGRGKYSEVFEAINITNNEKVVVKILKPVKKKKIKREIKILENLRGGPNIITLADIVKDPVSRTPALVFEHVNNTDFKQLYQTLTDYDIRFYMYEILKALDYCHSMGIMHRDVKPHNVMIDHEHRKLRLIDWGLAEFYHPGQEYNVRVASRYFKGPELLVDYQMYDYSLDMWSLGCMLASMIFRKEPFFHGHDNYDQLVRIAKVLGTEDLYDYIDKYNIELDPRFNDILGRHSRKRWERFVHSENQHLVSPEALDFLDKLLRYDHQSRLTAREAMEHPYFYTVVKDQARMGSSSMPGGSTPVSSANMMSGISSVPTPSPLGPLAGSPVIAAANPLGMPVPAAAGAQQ

[22] = target: Maternal embryonic leucine zipper kinase (Homo sapiens) (UniProt Q14680); conditions: dose 10.0 µM
Sequence of Maternal embryonic leucine zipper kinase (Homo sapiens) (Q14680 whole entry, looked up): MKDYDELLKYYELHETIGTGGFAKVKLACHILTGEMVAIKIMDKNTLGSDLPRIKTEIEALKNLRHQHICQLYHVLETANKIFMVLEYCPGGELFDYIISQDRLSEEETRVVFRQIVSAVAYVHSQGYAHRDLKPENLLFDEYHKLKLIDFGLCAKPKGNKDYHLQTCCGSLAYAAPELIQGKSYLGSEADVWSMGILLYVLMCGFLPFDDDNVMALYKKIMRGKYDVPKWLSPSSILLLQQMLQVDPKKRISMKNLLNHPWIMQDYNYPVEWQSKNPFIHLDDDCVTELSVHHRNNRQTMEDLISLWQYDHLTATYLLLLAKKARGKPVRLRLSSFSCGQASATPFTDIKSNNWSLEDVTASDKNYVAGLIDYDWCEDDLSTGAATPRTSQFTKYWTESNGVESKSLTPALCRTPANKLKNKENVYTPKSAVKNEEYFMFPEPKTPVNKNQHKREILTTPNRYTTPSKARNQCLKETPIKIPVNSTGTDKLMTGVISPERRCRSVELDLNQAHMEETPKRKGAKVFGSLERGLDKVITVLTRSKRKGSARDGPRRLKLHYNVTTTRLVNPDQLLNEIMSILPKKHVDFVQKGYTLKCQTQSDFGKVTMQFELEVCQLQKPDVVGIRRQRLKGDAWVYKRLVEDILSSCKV

[23] = target: T4, Dual specificity tyrosine-phosphorylation-regulated kinase 2 (Homo sapiens, UniProt Q92630)
T4 sequence (Q92630 whole entry): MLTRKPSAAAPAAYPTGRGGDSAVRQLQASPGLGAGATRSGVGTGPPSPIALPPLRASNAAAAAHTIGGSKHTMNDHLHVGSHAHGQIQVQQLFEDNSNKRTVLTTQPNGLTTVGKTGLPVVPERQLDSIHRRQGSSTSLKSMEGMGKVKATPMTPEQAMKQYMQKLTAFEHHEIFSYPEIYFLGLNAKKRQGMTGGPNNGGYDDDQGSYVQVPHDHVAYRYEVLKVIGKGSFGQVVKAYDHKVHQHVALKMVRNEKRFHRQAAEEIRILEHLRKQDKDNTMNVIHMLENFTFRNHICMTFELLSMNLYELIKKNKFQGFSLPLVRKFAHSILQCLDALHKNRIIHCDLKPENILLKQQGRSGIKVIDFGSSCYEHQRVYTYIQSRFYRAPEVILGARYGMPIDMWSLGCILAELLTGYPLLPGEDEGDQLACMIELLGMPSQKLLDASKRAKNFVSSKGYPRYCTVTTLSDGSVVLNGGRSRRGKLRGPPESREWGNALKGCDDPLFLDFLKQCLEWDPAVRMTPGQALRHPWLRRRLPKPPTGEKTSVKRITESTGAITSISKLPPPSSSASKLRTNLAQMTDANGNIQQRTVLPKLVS
Description: Inhibition of human DYRK2 assessed as remaining activity by eurofins-cerep kinase profiler analysis

[24] = target: Serine/threonine-protein kinase PLK4 (Homo sapiens) (UniProt O00444); conditions: dose 10.0 µM
[25] = target: T2, Dual specificity protein kinase CLK4; remark: listed apart in the source
Myotonin-protein kinase = Myotonin-protein kinase (Homo sapiens, UniProt Q09013)
Sequence of Myotonin-protein kinase (Q09013 whole entry): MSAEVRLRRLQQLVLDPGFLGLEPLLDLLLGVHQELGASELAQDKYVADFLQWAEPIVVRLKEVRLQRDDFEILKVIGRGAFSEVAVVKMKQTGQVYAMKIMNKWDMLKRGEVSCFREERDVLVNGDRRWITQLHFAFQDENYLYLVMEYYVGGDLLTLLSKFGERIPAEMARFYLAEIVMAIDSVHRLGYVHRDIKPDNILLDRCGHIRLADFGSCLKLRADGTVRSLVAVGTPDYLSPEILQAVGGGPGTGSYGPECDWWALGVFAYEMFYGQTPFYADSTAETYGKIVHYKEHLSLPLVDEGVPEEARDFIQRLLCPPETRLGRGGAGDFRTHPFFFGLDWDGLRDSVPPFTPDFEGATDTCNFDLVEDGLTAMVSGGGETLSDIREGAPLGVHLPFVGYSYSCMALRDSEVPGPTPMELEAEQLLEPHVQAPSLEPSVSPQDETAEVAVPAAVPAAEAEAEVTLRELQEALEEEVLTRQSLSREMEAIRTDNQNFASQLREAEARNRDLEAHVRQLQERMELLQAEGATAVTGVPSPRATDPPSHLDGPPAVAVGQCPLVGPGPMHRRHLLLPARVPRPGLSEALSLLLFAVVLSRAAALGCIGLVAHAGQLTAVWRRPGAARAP
Description: Inhibition of human DMPK assessed as remaining activity by eurofins-cerep kinase profiler analysis

[26] = target: T1, Dual specificity protein kinase CLK1; remark: listed apart in the source
Target sequence in this assay (P49759 whole entry): as the sequence (P49759 whole entry, looked up) above

Tribbles homolog 2 = Tribbles homolog 2 (Homo sapiens, UniProt Q92519)
Description: Inhibition of human TRB2 assessed as remaining activity by eurofins-cerep kinase profiler analysis

[27] = target: Glycogen synthase kinase-3 beta (Homo sapiens) (UniProt P49841); conditions: dose 10.0 µM
[28] = target: Death-associated protein kinase 3 (Homo sapiens) (UniProt O43293); conditions: dose 10.0 µM
[29] = target: Serine/threonine-protein kinase TAO2 (Homo sapiens, UniProt Q9UL54)
Description: Inhibition of human TAO2 assessed as remaining activity by eurofins-cerep kinase profiler analysis

[30] = target: Cyclin-dependent kinase-like 2 (Homo sapiens, UniProt Q92772)
Description: Inhibition of human CDKL2 assessed as remaining activity by eurofins-cerep kinase profiler analysis

[31] = target: Serine/threonine-protein kinase TAO1 (Homo sapiens, UniProt Q7L7X3)
Description: Inhibition of human TAO1 assessed as remaining activity by eurofins-cerep kinase profiler analysis

[32] = target: Mitogen-activated protein kinase 15 (Homo sapiens) (UniProt Q8TD08); conditions: dose 10.0 µM
[33] = target: Serine/threonine-protein kinase haspin (Homo sapiens, UniProt Q8TF76)
Description: Inhibition of human HASPIN assessed as remaining activity by eurofins-cerep kinase profiler analysis

[34] = target: T5, AP2-associated protein kinase 1 (Homo sapiens, UniProt Q2M2I8); conditions: dose 10.0 µM
[35] = target: Aurora kinase A (Homo sapiens) (UniProt O14965); conditions: dose 10.0 µM
[36] = target: T5, AP2-associated protein kinase 1
Description: Inhibition of human AAK1 assessed as remaining activity by eurofins-cerep kinase profiler analysis

[37] = target: Myotonin-protein kinase (Homo sapiens) (UniProt Q09013); conditions: dose 10.0 µM
Sequence of Myotonin-protein kinase (Homo sapiens) (Q09013 whole entry): as the sequence (Q09013 whole entry) above

T2 sequence (Q9HAZ1 whole entry): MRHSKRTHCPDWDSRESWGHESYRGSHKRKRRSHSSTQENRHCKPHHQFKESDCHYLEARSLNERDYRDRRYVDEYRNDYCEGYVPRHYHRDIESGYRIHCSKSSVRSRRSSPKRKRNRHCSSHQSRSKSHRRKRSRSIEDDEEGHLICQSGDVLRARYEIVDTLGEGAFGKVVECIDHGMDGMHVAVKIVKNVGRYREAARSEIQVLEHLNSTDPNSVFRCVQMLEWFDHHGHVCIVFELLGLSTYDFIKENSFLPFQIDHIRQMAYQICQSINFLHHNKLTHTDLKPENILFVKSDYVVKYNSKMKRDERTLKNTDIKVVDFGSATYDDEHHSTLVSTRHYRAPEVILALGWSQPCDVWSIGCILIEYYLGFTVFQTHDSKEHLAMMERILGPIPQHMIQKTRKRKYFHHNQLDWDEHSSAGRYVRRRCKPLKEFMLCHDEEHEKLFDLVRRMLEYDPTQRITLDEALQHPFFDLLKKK

ΔTm [1]: 3 °C | IC50 [2]: > 1 µM | IC50 [3]: > 1 µM | ΔTm [4]: -1.2 °C | ΔTm [5]: 3.5 °C | IC50 [6]: > 1 µM | ΔTm [7]: 4.5 °C | IC50 [8]: > 10 µM | ΔTm [9]: 4 °C | IC50 [10]: > 10 µM | IC50 [11]: > 1 µM | IC50 [12]: > 1 µM | IC50 [13]: > 1 µM | IC50 [14]: > 10 µM | IC50 [15]: > 10 µM | IC50 [16]: > 10 µM | ΔTm [17]: 0.6 °C | IC50 [18]: > 10 µM | IC50 [19]: > 1 µM | ΔTm [20]: 1.7 °C | ΔTm [21]: 1.4 °C | ΔTm [22]: 0.4 °C | IC50 [23]: > 1 µM | ΔTm [24]: 1.4 °C | IC50 [25]: > 10 µM | IC50 (Myotonin-protein kinase): > 1 µM | IC50 [26]: > 1 µM | IC50 (Tribbles homolog 2): > 1 µM | ΔTm [27]: 2.1 °C | IC50 [29]: > 10 µM | IC50 [30]: > 1 µM | IC50 [31]: > 10 µM | IC50 [33]: > 10 µM | ΔTm [34]: 6 °C | ΔTm [35]: 1.4 °C | IC50 [36]: Not Active | ΔTm [37]: 1.1 °C
Compound: COC[C@@H](CC(C)C)NC1=N/C(=C\c2ccc3scnc3c2)C(=O)N1
ΔTm [28]: 1.2 °C | ΔTm [32]: 4.7 °C
